Calls of active or inactive are those of the source. How the calls were made is not given here.
Experiment: blockers of an Epstein-Barr virus protein-peptide interaction – biochemical, fluorescence polarization, dose response (AID 1419)
Conditions: cell-free protein-peptide binding, 2 h; for fold change: measured here: P channel fold over control, at 54 µM

Row | SMILES | IC50 | fold change
1 | CC1CC=C2C(C#N)=C(N)C(C#N)(C#N)C(c3cccs3)C2C1 (configuration not stated) | 12.8 µM | 2.49
2 | Cc1cc2nc3c(=O)[nH]c(=O)[nH]c3nc2c([N+](=O)[O-])c1N | < 0.42 µM | 67
3 | O=[N+]([O-])c1ccc(N2N=C(c3ccco3)CC2c2ccccc2)cc1 (configuration not stated) | 14.2 µM | 2.85
4 | Cc1ccc2nc(SCC(=O)Nc3ccccc3N3CCOCC3)c(C#N)cc2c1 | > 54 µM (inactive) | 1.02
5 | Cc1ccc(-c2nc(SCC(=O)Nc3ccccc3OC(F)F)c3c(C)c(C(=O)O)sc3n2)cc1 | 18.2 µM | 1.05
6 | O=C(/C(=C(\[O-])c1ccccc1)[n+]1ccc2ccccc2c1)c1ccc(Cl)cc1 | 8.26 µM | 2.35
7 | Cc1ccc2[nH]c(O)c(N=NC(=O)c3ccc(NS(=O)(=O)c4cccs4)cc3)c2c1 | > 54 µM (inactive) | 0.957
8 | CC(=O)Nc1cccc(C2=CC(c3ccco3)n3ncnc3N2)c1 (configuration not stated) | 1.48 µM | 20.3
9 | CC1=CC(=C(C#N)c2nc3ccccc3s2)C=C(C)N1c1ccc(F)cc1F | 3.98 µM | 11.2
10 | CCN(CC)c1ccc(/C=c2\sc3nnc(-c4ccccc4Cl)n3c2=O)cc1 | 2.65 µM | 16.1
11 | CC(C)Oc1ccc(-c2nn(-c3ccccc3)cc2/C=c2\sc3ncnn3c2=O)cc1 | 1.43 µM | 14.3
12 | O=C(CCN1CCN(c2ccccc2)CC1)N/N=C/c1ccc(O)c(O)c1O | > 54 µM (inactive) | 1.01
13 | CCOC(=O)/C(C#N)=C/c1ccc(N2CCN(Cc3ccccc3)CC2)cc1 | 40.3 µM (inactive) | 9.09
14 | Cc1cc[n+](-c2[nH]c(=O)sc2/C=N/NC([S-])=Nc2ccccc2)cc1 | > 54 µM (inactive) | 1.42
15 | CCOc1ccc(-n2c(O)c(C=Nc3ccc(N(CC)CC)cc3)c(=O)[nH]c2=O)cc1 | 7.18 µM | 9.37
16 | O=C1NC(=S)/C(=C\c2ccc(-c3ccccc3Cl)o2)S1 | 26.9 µM | 1.59
17 | CC(=O)c1ccc2noc(-c3ccc(F)cc3)c2c1 | 3.34 µM | 4.39
18 | Cc1ccnc(N2C(=O)c3cccc4c([N+](=O)[O-])ccc(c34)C2=O)c1 | 3.48 µM | 2.33
19 | CC(C)C[C@H]1C(=O)N2CCCC2[C@]2(O)O[C@](NC(=O)[C@@H]3C=C4c5cccc6[nH]cc(c56)CC4N(C)C3)(C(C)C)C(=O)N12 (some centres not stated) | 8.52 µM | 2.39

Row | SMILES | IC50 | fold change
20 | CN1Cc2c(c(C#N)c(N)n(C)c2=S)CC1(C)C | > 54 µM (inactive) | 1.89
21 | S=C(Nc1ccc(N2CCOCC2)cc1)Nc1ccc2nc(-c3ccco3)c(-c3ccco3)nc2c1 | 3.86 µM | 3.7
22 | O=c1c(/C=C(\O)c2ccccc2)nc2ccccc2n1-c1ccccc1 | 14.1 µM | 27.6
23 | N#CC1=C(N)OC2=C(CC/C2=C\c2ccccc2)C1c1ccccc1 (configuration not stated) | < 0.42 µM | 6.24
24 | CN1/C(=C/C=C(C#N)C#N)C(C)(C)c2ccccc21 | > 54 µM (inactive) | 1.64
25 | Cc1cc[n+](-c2[nH]c(=O)sc2/C=N/NC([S-])=Nc2ccccc2)cc1C | > 54 µM (inactive) | 1.95
26 | CC[C@@H](CO)NC(=O)[C@@H]1C=C2c3cccc4c3c(cn4C)C[C@H]2N(C)C1 | > 54 µM (inactive) | 1.44
27 | CCCSCCCNC(=O)CC1Oc2ccccc2NC1=O (configuration not stated) | > 54 µM (inactive) | 1.09
28 | CCN(CC)C(=O)CC(c1cc(OC)c(OC)c(OC)c1)c1c(OC)cc(OC)c2c(-c3ccccc3)cc(=O)oc12 (configuration not stated) | 33.8 µM (inactive) | 1.01
29 | COc1ccccc1N1CCN(CC(O)COc2cccc3ccccc23)CC1 (configuration not stated) | > 54 µM (inactive) | 0.917
30 | COc1ccccc1N1C(=O)C2C(C(=O)c3ccccc3)=NN(c3ccc(C)cc3)C2C1=O (configuration not stated) | 3.66 µM | 19.5
31 | CCOCCCn1c(=NC(=O)c2cccs2)c(C#N)cc2c(=O)n3cccc(C)c3nc21 | 7.53 µM | 4.61
32 | O=C(O)COn1c(-c2ccccc2)nc2ccc([N+](=O)[O-])cc21 | > 54 µM (inactive) | 1.17
33 | Cc1cc2c(cc1C)NC(c1c(C)n(C)n(-c3ccccc3)c1=O)C1=C(CC(C)(C)CC1=O)N2 (configuration not stated) | 3.25 µM | 3.49
34 | CS(=O)(=O)n1nc(-c2ccc(Cl)cc2)nc1SCc1ccccc1 | > 54 µM (inactive) | 1.16
35 | Cc1cc(-c2nc3c4c5c(sc4[nH]c(=O)n3n2)CCC5)c(C)o1 | 21.8 µM | 1.2
36 | Cc1[nH]c(=O)[nH]c(=O)c1CSCC(=O)OCC(=O)Nc1ccccn1 | > 54 µM (inactive) | 1.09
37 | Cc1ccc(N2C(=O)C3C(C2=O)C(C(=O)c2ccc(Cl)cc2)N2CCCC32)cc1 (configuration not stated) | > 54 µM (inactive) | 2.44
38 | O=[N+]([O-])c1cccc(-c2cn3nc(-c4ccccc4)c(-c4ccccc4)nc3n2)c1 | 5.71 µM | 6.61

Row | SMILES | IC50 | fold change
39 | CCn1c(C)cc(C=C2C(=O)c3ccccc3C2=O)c1C | 16.2 µM | 8.23
40 | COc1ccc2nc(N3C(=O)/C(=C/c4ccc(Cl)cc4)NC3=S)sc2c1 | > 54 µM (inactive) | 1.37
41 | CCn1c2ccccc2c2cc(NC(=O)c3coc(=O)c(Br)c3)ccc21 | < 0.42 µM | 21.9
42 | COc1ccc(C2C=C(c3ccc(Br)s3)Nc3ncnn32)cc1OC (configuration not stated) | < 0.42 µM | 24.3
43 | Cc1c2ccccc2nc2c(F)c(NC(C)C)c(F)c(F)c12 | < 0.42 µM | 4.96
44 | CCOC(=O)C1CCCN(c2ccc([N+](=O)[O-])c3nonc23)C1 (configuration not stated) | < 0.42 µM | 143
45 | CC(C)Nc1nc(Cl)nc(N(C#N)CN2C(=O)c3ccccc3S2(=O)=O)n1 | > 54 µM (inactive) | 0.923
46 | COc1ccc(/C=C2\SC(c3ccc(C)cc3)=NC2=O)cc1OC | > 54 µM (inactive) | 8.37
47 | O=C1CCCC2=C1Sc1ccc(Cl)cc1N2 | 5.79 µM | 2.69
48 | O=C(/C(=C(\[O-])c1ccccc1)[n+]1ccc2ccccc2c1)c1ccccc1 | 4.31 µM | 3.02
49 | O=C1Nc2ccc(Cl)cc2C12Nc1ccccc1-c1nnc(SCc3ccccc3F)nc1O2 (configuration not stated) | 3.05 µM | 14.3
50 | Fc1ccc(C2=CC(c3ccc(Br)o3)n3ncnc3N2)cc1 (configuration not stated) | 2.62 µM | 3.2
51 | COc1ccc(-n2c(N)c(C#N)c3ccc([N+](=O)[O-])cc3c2=O)cc1 | > 54 µM (inactive) | 1.45
52 | O=S(=O)([N-]c1nc2ccccc2nc1-[n+]1ccc(-c2ccncc2)cc1)c1ccccc1 | 9.13 µM | 3.54
53 | COc1ccc(NC(=O)Cn2ncc(Cl)c(Cl)c2=O)cc1S(=O)(=O)N1CCOCC1 | > 54 µM (inactive) | 0.96
54 | COc1ccc(Cc2nnc(NC(=O)Cc3cccs3)s2)cc1OC | > 54 µM (inactive) | 1.15
55 | O=C(OCCN1C(=O)c2cccc3c(N4CCOCC4)ccc(c23)C1=O)c1ccc(Cl)cc1 | 4.07 µM | 53.3
56 | CCN(CC)c1ccc2oc(=O)c(C)nc2c1 | 4.76 µM | 9.58

Reference: PubChem BioAssay AID1419 (Emory University Molecular Libraries Screening Center, 2008)
